Among the data in ChEMBL document CHEMBL5465560, “Selectivity Literature for EUbOPEN Chemogenomic Library” (2024) are % of control, % of inhibition and % binding values, retold here.

The target in experiment [1] is Dual specificity protein kinase CLK4 (Homo sapiens, UniProt Q9HAZ1). As to conditions: at 10 µM.
For experiment [2], the target named is T1, Calcium/calmodulin-dependent protein kinase type IV (Homo sapiens) (UniProt Q16566).
T1 sequence (whole entry): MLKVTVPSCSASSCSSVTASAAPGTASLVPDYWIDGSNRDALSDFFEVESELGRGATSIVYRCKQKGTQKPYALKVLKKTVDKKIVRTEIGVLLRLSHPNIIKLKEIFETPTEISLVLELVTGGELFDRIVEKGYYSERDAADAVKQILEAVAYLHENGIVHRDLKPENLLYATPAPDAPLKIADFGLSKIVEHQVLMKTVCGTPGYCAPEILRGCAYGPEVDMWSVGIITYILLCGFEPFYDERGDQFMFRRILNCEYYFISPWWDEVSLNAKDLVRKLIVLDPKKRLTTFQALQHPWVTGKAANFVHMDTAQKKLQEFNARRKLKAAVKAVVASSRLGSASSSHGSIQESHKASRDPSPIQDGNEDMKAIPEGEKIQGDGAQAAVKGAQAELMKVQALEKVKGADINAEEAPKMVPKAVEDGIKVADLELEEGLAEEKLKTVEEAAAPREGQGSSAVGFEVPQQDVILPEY
Description: Selectivity interaction (KinomeScan (DiscoverX)) EUB0001079a CAMK4. As to conditions: at 1 µM.

Experiment [3] deals with Serine/threonine-protein kinase PLK2 (Homo sapiens, UniProt Q9NYY3). Nature of the experiment: Selectivity interaction (KinomeScan (DiscoverX)) EUB0000092b PLK2. As to conditions: at 10 µM.
The test system of experiment [4] is Serine/threonine-protein kinase B-raf (Homo sapiens), P15056 [V600E]. Description: (§1) Selectivity interaction (KinomeScan (DiscoverX)) EUB0001049a BRAF. As to conditions: at 1 µM.
For experiment [5], the target named is Serine/threonine-protein kinase B-raf (Homo sapiens) (UniProt P15056). Described as §1. The following applies: at 1 µM.
The target in experiment [6] is Fibroblast growth factor receptor 4 (Homo sapiens, UniProt P22455). Description: Selectivity interaction (KinomeScan (DiscoverX)) EUB0000655a FGFR4. As to conditions: at 10 µM.
Experiment [7] deals with Non-receptor tyrosine-protein kinase TYK2 (Homo sapiens, UniProt P29597). Nature of the experiment: Selectivity interaction (KinomeScan (DiscoverX)) EUB0000695a TYK2. The following applies: at 100 nM.
The target of another experiment is D(2) dopamine receptor (Homo sapiens, UniProt P14416). Description: Selectivity interaction (Panel of non-epigenetic targets (kinases, GPCRs, ion channels, and transporters, Eurofins) ) EUB0000271b DRD2. As to conditions: at 1 µM.
Experiment [8] has as its target T2, Tyrosine-protein kinase ZAP-70 (Homo sapiens) (UniProt P43403).
T2 sequence (whole entry): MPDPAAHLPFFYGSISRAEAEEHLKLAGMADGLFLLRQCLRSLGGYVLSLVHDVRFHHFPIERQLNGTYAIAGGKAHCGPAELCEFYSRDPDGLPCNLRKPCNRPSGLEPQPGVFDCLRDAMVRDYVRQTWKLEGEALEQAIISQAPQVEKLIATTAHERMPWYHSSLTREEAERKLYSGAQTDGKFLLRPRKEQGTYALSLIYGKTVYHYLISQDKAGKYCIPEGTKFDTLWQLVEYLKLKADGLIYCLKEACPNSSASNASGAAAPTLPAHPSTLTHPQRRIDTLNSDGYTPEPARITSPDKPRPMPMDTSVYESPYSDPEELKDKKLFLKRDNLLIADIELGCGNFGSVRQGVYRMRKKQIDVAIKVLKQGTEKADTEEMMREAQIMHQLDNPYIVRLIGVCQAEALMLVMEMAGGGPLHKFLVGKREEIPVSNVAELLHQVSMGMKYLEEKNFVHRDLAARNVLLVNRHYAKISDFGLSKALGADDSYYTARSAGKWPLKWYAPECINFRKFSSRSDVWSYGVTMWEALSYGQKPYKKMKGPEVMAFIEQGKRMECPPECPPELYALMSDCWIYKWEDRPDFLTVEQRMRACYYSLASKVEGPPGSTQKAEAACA
Description: Selectivity interaction (KinomeScan (DiscoverX)) EUB0000666a ZAP70. The following applies: at 10 µM.

Experiment [9] addresses Dual specificity mitogen-activated protein kinase kinase 2 (Homo sapiens) (UniProt P36507). Description: Selectivity interaction (ActivX KiNativ screen (kinase selectivity in THP-1 cell lysates)) EUB0000639a MAP2K2. The following applies: lysate, at 5 µM. It is filed as subcellular.
The target in experiment [10] is T3, Serine/threonine-protein kinase D3 (Homo sapiens) (UniProt O94806).
T3 sequence (whole entry): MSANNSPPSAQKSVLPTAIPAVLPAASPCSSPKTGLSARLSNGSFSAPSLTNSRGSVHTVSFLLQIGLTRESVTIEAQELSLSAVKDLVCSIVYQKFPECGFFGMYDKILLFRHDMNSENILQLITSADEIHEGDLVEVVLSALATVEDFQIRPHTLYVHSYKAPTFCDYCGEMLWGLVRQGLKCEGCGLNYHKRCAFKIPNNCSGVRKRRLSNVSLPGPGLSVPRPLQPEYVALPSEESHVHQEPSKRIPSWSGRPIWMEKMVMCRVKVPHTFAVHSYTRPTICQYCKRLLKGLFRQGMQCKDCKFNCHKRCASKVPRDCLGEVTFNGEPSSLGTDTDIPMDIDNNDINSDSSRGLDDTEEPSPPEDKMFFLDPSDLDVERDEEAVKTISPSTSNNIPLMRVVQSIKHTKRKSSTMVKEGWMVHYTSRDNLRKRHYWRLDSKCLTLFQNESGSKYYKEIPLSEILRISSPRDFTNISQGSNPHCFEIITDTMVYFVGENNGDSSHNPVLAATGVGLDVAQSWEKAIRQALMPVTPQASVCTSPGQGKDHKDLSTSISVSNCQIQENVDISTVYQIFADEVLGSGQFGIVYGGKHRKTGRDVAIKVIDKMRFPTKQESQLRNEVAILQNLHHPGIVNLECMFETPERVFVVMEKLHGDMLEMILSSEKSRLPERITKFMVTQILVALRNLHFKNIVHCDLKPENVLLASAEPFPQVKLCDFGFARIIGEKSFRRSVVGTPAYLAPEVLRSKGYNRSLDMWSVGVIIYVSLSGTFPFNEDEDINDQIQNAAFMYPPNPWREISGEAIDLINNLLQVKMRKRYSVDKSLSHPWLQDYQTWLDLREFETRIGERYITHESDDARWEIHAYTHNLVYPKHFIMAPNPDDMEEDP
Nature of the experiment: Selectivity interaction (KinomeScan (DiscoverX)) EUB0000229b PRKD3. The following applies: at 10 µM.

Experiment [11] concerns the target RAC-gamma serine/threonine-protein kinase (Homo sapiens, UniProt Q9Y243). Description: Selectivity interaction (KinomeScan (DiscoverX)) EUB0000595a AKT3. The following applies: at 10 µM.
Experiment [12] deals with Tyrosine-protein kinase CSK (Homo sapiens) (UniProt P41240). Description: Selectivity interaction (ActivX KiNativ screen (ex vivo kinase selectivity in human PBMCs)) EUB0001619a CSK. It is filed as cell-based. The following applies: PBMC, at 1 µM.
Experiment [13] addresses Mitogen-activated protein kinase 3 (Homo sapiens, UniProt P27361). Nature of the experiment: Selectivity interaction (ActivX KiNativ screen (ex vivo kinase selectivity in human PBMCs)) EUB0001619a MAPK3. Format: cell-based. As to conditions: PBMC, at 1 µM.
Experiment [14] has as its target T2, Tyrosine-protein kinase ZAP-70 (Homo sapiens). Nature of the experiment: Selectivity interaction (KinomeScan (DiscoverX)) EUB0001619a ZAP70. As to conditions: at 1 µM.

Chain of Dual specificity protein kinase CLK4 (Q9HAZ1 whole entry, looked up): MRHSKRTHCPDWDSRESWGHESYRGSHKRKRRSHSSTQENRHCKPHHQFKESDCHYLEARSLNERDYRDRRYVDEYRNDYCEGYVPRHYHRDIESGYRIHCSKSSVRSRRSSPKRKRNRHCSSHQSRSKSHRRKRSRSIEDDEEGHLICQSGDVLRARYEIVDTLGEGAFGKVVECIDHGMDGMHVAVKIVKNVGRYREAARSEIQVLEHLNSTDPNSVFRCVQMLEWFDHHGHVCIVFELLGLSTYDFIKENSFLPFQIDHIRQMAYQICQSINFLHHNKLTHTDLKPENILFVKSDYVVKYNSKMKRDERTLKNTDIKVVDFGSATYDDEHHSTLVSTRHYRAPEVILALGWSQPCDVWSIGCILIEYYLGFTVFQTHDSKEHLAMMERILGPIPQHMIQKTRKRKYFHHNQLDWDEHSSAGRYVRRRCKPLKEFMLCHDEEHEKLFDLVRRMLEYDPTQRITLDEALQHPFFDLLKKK
Chain of Fibroblast growth factor receptor 4 (P22455 22-802 limits assumed): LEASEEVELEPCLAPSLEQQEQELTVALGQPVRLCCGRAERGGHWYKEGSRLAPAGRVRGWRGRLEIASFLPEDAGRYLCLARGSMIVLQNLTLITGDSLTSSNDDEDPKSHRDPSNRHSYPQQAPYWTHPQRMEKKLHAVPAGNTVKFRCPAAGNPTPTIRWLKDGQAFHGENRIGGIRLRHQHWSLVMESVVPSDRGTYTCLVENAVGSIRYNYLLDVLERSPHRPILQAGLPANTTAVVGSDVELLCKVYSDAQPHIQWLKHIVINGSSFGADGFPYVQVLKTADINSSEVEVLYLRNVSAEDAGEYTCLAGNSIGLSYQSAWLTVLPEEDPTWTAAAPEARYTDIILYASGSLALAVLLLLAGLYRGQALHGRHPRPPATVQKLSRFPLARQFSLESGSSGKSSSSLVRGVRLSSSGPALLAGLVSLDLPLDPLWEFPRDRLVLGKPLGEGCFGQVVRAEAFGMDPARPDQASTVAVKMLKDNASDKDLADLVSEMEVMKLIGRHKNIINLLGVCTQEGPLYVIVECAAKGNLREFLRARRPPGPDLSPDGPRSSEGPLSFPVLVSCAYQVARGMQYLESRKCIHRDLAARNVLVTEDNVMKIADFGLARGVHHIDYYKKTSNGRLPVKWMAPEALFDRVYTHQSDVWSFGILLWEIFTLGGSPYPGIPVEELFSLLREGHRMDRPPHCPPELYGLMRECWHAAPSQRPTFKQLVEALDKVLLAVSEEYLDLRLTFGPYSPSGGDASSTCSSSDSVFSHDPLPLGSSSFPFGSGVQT
Chain of RAC-gamma serine/threonine-protein kinase (Q9Y243 whole entry): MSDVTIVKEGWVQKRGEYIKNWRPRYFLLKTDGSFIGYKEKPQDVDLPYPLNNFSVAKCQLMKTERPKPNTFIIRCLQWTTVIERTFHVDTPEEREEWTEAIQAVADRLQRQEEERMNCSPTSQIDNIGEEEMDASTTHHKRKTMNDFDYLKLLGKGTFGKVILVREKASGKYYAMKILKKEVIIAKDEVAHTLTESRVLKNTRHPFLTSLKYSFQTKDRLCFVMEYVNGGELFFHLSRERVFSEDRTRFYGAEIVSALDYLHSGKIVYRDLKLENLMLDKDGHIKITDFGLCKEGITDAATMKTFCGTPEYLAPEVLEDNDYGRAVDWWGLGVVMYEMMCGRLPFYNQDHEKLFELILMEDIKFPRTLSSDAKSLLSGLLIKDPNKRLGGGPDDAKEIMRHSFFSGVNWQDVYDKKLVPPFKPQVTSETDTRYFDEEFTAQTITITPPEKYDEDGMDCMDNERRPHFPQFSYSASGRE
Chain of Dual specificity mitogen-activated protein kinase kinase 2 (Homo sapiens) (P36507 whole entry): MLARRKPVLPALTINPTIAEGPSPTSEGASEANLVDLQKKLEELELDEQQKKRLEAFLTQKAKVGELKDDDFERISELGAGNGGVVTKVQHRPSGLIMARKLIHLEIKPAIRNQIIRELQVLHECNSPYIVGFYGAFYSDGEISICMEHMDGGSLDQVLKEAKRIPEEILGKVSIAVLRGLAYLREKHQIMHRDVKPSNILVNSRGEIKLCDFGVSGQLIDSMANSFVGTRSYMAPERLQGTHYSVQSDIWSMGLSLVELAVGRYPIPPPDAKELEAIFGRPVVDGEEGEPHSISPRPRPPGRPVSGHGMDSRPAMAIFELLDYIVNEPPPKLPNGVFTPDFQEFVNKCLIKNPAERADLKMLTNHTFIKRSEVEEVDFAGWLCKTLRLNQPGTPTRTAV
Chain of Serine/threonine-protein kinase PLK2 (Q9NYY3 whole entry, looked up): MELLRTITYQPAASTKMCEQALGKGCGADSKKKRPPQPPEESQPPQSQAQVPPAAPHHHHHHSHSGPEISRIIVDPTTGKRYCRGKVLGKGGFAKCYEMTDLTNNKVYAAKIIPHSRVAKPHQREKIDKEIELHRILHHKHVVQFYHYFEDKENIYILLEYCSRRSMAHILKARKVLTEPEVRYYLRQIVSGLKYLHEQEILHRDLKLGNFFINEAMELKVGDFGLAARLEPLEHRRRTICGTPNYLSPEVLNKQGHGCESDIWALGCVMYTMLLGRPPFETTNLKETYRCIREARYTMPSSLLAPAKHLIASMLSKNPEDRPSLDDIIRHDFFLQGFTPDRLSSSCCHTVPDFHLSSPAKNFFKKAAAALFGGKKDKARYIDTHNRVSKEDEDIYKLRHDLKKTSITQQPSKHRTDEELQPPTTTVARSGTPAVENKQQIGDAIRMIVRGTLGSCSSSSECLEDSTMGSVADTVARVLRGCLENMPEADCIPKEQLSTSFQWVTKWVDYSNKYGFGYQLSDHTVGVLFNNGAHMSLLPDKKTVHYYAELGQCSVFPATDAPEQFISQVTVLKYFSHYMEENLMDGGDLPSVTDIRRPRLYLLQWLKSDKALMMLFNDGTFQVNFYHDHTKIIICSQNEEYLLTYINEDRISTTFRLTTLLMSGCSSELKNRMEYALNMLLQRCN
Chain of Tyrosine-protein kinase CSK (Homo sapiens) (P41240 2-450 limits assumed): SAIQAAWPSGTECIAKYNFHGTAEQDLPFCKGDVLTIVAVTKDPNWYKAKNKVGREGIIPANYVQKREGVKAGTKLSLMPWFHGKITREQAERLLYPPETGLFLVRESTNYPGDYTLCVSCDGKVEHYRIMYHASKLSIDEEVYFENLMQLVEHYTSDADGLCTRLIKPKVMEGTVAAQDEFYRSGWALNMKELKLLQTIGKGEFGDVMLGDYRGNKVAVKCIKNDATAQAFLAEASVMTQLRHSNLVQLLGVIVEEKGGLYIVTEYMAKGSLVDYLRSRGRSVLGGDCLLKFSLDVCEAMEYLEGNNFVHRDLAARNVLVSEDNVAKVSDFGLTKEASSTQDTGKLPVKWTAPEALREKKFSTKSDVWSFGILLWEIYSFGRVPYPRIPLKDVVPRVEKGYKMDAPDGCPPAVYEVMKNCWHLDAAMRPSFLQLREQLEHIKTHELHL
Chain of D(2) dopamine receptor (P14416 whole entry): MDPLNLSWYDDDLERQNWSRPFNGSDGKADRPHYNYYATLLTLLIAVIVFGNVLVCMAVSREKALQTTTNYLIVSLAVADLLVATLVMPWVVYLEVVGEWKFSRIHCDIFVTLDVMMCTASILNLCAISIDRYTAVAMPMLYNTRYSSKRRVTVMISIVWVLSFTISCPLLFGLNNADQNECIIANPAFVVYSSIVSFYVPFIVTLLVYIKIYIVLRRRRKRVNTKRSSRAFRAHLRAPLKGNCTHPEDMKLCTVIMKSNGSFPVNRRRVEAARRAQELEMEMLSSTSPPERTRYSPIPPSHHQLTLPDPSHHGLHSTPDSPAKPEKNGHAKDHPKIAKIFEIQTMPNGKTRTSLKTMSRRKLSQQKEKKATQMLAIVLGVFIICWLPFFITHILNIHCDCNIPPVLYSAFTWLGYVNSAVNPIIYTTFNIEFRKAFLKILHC
Chain of Non-receptor tyrosine-protein kinase TYK2 (P29597 whole entry): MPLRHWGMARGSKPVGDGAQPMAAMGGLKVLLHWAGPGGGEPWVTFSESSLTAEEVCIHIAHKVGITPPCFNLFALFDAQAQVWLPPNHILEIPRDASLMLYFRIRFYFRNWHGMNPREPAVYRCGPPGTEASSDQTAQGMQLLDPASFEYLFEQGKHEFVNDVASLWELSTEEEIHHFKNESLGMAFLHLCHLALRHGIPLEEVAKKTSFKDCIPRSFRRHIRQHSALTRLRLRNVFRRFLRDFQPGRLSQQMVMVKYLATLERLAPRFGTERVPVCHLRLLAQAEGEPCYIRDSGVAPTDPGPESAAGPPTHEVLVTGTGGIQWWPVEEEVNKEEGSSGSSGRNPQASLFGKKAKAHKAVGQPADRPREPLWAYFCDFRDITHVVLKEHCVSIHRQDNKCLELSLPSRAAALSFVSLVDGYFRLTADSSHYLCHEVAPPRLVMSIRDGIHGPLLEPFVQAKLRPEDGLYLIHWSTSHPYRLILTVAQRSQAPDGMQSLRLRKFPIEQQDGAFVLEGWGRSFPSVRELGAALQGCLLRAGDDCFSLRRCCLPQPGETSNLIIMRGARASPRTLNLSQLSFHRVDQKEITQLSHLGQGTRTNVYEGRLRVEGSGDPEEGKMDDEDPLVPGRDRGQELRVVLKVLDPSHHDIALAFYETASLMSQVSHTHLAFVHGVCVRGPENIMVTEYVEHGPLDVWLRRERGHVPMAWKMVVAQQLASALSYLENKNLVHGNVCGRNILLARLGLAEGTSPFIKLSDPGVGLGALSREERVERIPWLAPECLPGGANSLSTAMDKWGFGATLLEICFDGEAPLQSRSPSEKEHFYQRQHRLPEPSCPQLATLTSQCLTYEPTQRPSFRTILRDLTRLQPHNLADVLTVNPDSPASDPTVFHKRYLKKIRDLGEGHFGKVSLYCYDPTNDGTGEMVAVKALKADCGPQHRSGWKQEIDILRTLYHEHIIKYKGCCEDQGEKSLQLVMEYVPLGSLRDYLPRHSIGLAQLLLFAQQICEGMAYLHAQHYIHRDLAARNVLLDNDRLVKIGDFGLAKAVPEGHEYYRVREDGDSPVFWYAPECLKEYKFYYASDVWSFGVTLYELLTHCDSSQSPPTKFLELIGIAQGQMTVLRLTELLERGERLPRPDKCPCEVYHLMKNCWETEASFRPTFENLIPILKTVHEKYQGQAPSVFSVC

Take `Cc1cc([C@@H](C)Nc2ccccc2C(=O)O)c2nc(N3CCOCC3)cc(=O)n2c1` [AZD-6482]: the % of control in experiment [1] turned out to be 68%. As for `Nc1cnc(N2CCc3cc(S(=O)(=O)Nc4c(F)cc(Cl)cc4F)cc(N4CCCC4=O)c32)nc1` [TP-020n], the % of control in [2] came to 96%. For `CCC(=O)N1CCN(c2ccc(-n3c(=O)ccc4cnc5ccc(-c6cnc7ccccc7c6)cc5c43)cc2C(F)(F)F)CC1`, the % of control in [3] was 85%. For `COc1cc(Nc2nc(C)cc(-c3cnn4nc(OC)ccc34)n2)cc(C(F)(F)F)c1`, the % of control in experiment [4] and in [5] was 100% each time. In [6], `CN(C)CCOc1ccc(-c2nc(-c3ccncc3)c(-c3ccc4c(c3)CC/C4=N\O)[nH]2)cc1` came in with a % of control of 100%. `Cc1cc(F)c(C(=O)Nc2cccc(-c3nncn3C(C)C)n2)cc1-n1cnc(C2CC2)c1`: in [7], the % of control was determined as 73%. On to `Cc1cc(C)cc([C@@H]2c3cc(C)ccc3NC(=O)CN2C(=O)c2ccc(Br)s2)c1`, for which the % of inhibition at D(2) dopamine receptor was -1%. In [8], `O=C(NOC[C@H](O)CO)c1ccc(F)c(F)c1Nc1ccc(I)cc1F` returned a % of control of 89%. In the case of `CC[C@@H]1[C@H](F)C(=O)N[C@@H]1COc1nccc2cc(C(N)=O)c(OC)cc12` [ZIMLOVISERTIB], in experiment [9], the % of inhibition is -10.6%. Take `COc1cc(N(C)c2ccnc3ccc(C(F)(F)F)cc23)cc(OC)c1OC`: the % binding in [10] is 58%. `COCC(=O)NC/C=C/c1ccc2ncnc(Nc3ccc(Oc4ccc(C)nc4)c(C)c3)c2c1` [CP-724714]: the % of control in experiment [11] came to 100%. On to `N#Cc1cccc(-c2c[nH]c3ncnc(N4CCOCC4)c23)c1`, for which the % of inhibition in experiment [12] is -2%; in [13], 3%. Also, the % of control in [14] worked out at 96%.
